Paper PMC5272823 (Peptides, 2016)
Ends that are not written are not given here.

What was measured:
[1] = type: in vivo, Female C57BL/6J mice; details: glucose 0.35 g/kg i.v. alone; plasma ELISA; n=15
[2] = ref [10]; cited from earlier work

Compound	Insulin peak concentration at 1 min [1]	Effect on insulin clearance [2]	Effect on insulin secretion [2]
OC[C@H]1OC(O)[C@H](O)[C@@H](O)[C@@H]1O (stereo partly drawn) [glucose]	0.9 ± 0.2 nmol/L	–	–
GLP-1 (HAEGTFTSDVSSYLEGQAAKEFIAWLVKGR; ends and bridges not checked; UniProt P01275 98-127, looked up)	–	diminish insulin clearance	stimulate insulin secretion
